According to US20230391792A1, “METHODS AND COMPOSITIONS FOR TARGETED PROTEIN DEGRADATION” (Ranok Therapeutics (Hangzhou) Co. Ltd., priority 2020, published 2023):

These molecules were tested against T1, HSP90α protein (N-terminal) (Homo sapiens, UniProt P07900) (assay: HSP90α-binding fluorescent polarization (FP) assay, competition with BODIPY-labeled RNK04010). Conditions: probe RNK04010 (BODIPY-labeled) 5 nM, 25° C. 300 min.
T1 construct: purchased BPS Bioscience #50298
Protocol: (§1) Binding of test compounds to HSP90α protein was measured by fluorescent polarization (FP) using the HSP90α (N-terminal) Assay Kit (BPS Bioscience, #50298), following the manufacturer's instructions, except as noted. Fluorescently labeled HSP90-binding compounds, either the provided FITC-geldanamycin (5 nM final concentration) or RNK04010, a triazolone-based HSP90-binding small molecule labeled with BODIPY through a piperizine-phenyl linker (5 nM final concentration) were employed. A 2.5-fold serial dilution of each test compound ranging from 20 μM to 5.2 nM was assayed for binding to HSP90α. After the final step of adding HSP90α protein to each assay well, plates were mixed by brief shaking, incubated at 25° C. for 120 min for FITC-geldanamycin or 300 min for RNK04010, and fluorescence was measured using a PerkinElmer EnVision Plate Reader.
(§2) HSP90α-binding fluorescent polarization (FP) assays measuring competition with the fluorescently labeled HSP90 binders, FITC-geldanamycin or RNK04010 (BODIPY-labeled), were applied to assess the binding capabilities of CHAMP molecules to HSP90.

Which IC50 does the source give for `Cc1sc2c(c1C)C(c1ccc(Cl)cc1)=N[C@@H](CC(=O)N[C@H](C)c1cccc(CN3CCC(Cc4ccc(-n5c(O)nnc5-c5cc(C(C)C)c(O)cc5O)cc4)CC3)c1)c1nnc(C)n1-2` [Compound 56] here?
Its IC50 is < 0.1 µM.

`Cc1sc2c(c1C)C(c1ccc(Cl)cc1)=NC(CC(=O)N1CCC(CN3CCN(Cc4ccc(-n5c(O)nnc5-c5cc(C(C)C)c(O)cc5O)cc4)CC3)CC1)c1nnc(C)n1-2` (centres unmarked) [Compound 1] was tested. Which IC50 did it give?
The IC50 was 0.1 to 1 µM.

Which IC50 does the source give for `COc1cccc(-c2cc(C(=O)Nc3ccc(-c4ccc(OC5CCN(C(=O)C[C@@H]6N=C(c7ccc(Cl)cc7)c7c(sc(C)c7C)-n7c(C)nnc76)CC5)cc4OCCN(C)C)cc3)ccc2OC)c1` [Compound 84] here?
The IC50 was > 1 µM.

How did the IC50 turn out when `Cc1sc2c(c1C)C(c1ccc(Cl)cc1)=N[C@@H](CC(=O)N1CCN(Cc3ccc(-n4c(O)nnc4-c4cc(C(C)C)c(O)cc4O)cc3)[C@@H](C)C1)c1nnc(C)n1-2` [Compound 107] was run?
Its IC50 is 0.1 to 1 µM.

How did the IC50 turn out when `CCN(CC)CCNC(=O)c1nnc(-c2cc(C(C)C)c(O)cc2O)n1-c1ccc(CN2CCN(CC3CCN(C(=O)C[C@@H]4N=C(c5ccc(Cl)cc5)c5c(sc(C)c5C)-n5c(C)nnc54)CC3)CC2)cc1` [Compound 90] was run?
The IC50 was < 0.1 µM.

`CCc1cc(-c2nnc(C(=O)NC(C)C)n2-c2ccc(CN3CCN(CC4CCN(C(=O)C[C@@H]5N=C(c6ccc(Cl)cc6)c6c(sc(C)c6C)-n6c(C)nnc65)CC4)CC3)cc2)c(O)cc1O` [Compound 74] was tested. Which IC50 did it give?
The IC50 was < 0.1 µM.

How did the IC50 turn out when `CCc1cc(-c2nnc(C(=O)NC(C)C)n2-c2ccc(CN3CCN(CC4CCN(C(=O)C[C@@H]5N=C(c6ccc(Cl)cc6)c6c(sc(C)c6C)-n6c(C)nnc65)CC4)CC3)cc2)c(O)cc1O` [Compound 102] was run?
The IC50 was < 0.1 µM.

With `CCN(Cc1ccc(OCCCNC(=O)C[C@@H]2N=C(c3ccc(Cl)cc3)c3c(sc(C)c3C)-n3c(C)nnc32)cc1)Cc1ccc(-n2c(C(=O)NCC(F)(F)F)nnc2-c2cc(C(C)C)c(O)cc2O)cc1` [Compound 72] as the molecule, how does the IC50 read?
The IC50 was 0.1 to 1 µM.

Which IC50 does the source give for `CC[C@@H](C)Nc1cc(C(=O)NC2CC3CCC(C2)N3c2ccc(C(=O)c3ccc(CN4CCN(CC5CCN(C(=O)C[C@@H]6N=C(c7ccc(Cl)cc7)c7c(sc(C)c7C)-n7c(C)nnc76)CC5)CC4)cc3)cn2)c(C)cc1C(N)=O` (some centres unmarked) [Compound 165] here?
The IC50 was > 1 µM.

Which IC50 does the source give for `CCc1cc(-c2nnc(C(=O)NC3(C)CC3)n2-c2ccc(CN3CCN(CC4CCN(C(=O)C[C@@H]5N=C(c6ccc(Cl)cc6)c6c(sc(C)c6C)-n6c(C)nnc65)CC4)CC3)cc2)c(O)cc1O` [Compound 104] here?
Its IC50 is < 0.1 µM.

`Cc1sc2c(c1C)C(c1ccc(Cl)cc1)=N[C@@H](CC(=O)NCCOCCNC(=O)O[C@H]1CC[C@H](Nc3cc(-n4nc(C(F)(F)F)c5c4CC(C)(C)CC5=O)ccc3C#N)CC1)c1nnc(C)n1-2` [Compound 154] was tested. Which IC50 did it give?
Its IC50 is > 1 µM.

With `CCOc1cc(N2CCC(C(=O)NCc3ccc(-n4c(O)nnc4-c4cc(C)c(O)cc4O)cc3)CC2)ccc1Nc1ncc2c(n1)N(C)c1ccccc1C(=O)N2C` [Compound 120] as the molecule, how does the IC50 read?
The IC50 was 0.1 to 1 µM.

With `Cc1sc2c(c1C)C(c1ccc(Cl)cc1)=N[C@@H](CC(=O)N1CCN(Cc3ccc4c(c3F)CN(C(=O)c3cc(C(C)C)c(O)cc3O)C4)CC1)c1nnc(C)n1-2` [Compound 100] as the molecule, how does the IC50 read?
The IC50 was 0.1 to 1 µM.

For `CCOc1cc(N2CCC(C(=O)N3CCC(COc4ccc(Nc5cc(-n6nc(C(F)(F)F)c7c6CC(C)(C)CC7=O)ccc5C(N)=O)cc4)CC3)CC2)ccc1Nc1ncc2c(n1)N(C)c1ccccc1C(=O)N2C` [Compound 159], which IC50 is on record?
The IC50 was > 1 µM.

With `CCOc1cc(N2CCC(C(=O)NCc3ccc(CN4CCC(Cc5ccc(-n6c(C(=O)NC(C)C)nnc6-c6cc(C(C)C)c(O)cc6O)cc5)CC4)cc3)CC2)ccc1Nc1ncc2c(n1)N(C)c1ccccc1C(=O)N2C` [Compound 130] as the molecule, how does the IC50 read?
Its IC50 is 0.1 to 1 µM.

How did the IC50 turn out when `CCOc1cc(N2CCC(C(=O)NCc3ccc(-n4c(O)nnc4-c4cc(C(C)C)c(O)cc4O)cc3C(F)(F)F)CC2)ccc1Nc1ncc2c(n1)N(C)c1ccccc1C(=O)N2C` [Compound 122] was run?
The IC50 was 0.1 to 1 µM.

What follows are molecules tested against T1, HSP90α protein (N-terminal) (assay: HSP90α-binding fluorescent polarization (FP) assay, competition with FITC-geldanamycin). Conditions: probe FITC-geldanamycin 5 nM, 25° C. 120 min.
Protocol: as §1, §2

With `Cc1sc2c(c1C)C(c1ccc(Cl)cc1)=N[C@@H](CC(=O)N[C@@H](C)c1ccc(CN3CCC(Cc4ccc(-n5c(O)nnc5-c5cc(C(C)C)c(O)cc5O)cc4)CC3)cc1)c1nnc(C)n1-2` [Compound 44] as the molecule, how does the IC50 read?
Its IC50 is 0.1 to 1 µM.

Which IC50 does the source give for `CC[C@@H](C)Nc1cc(C(=O)NC2CC3CCC(C2)N3c2ccc(C(=O)Nc3ccc(CN4CCN(CC5CCN(C(=O)C[C@@H]6N=C(c7ccc(Cl)cc7)c7c(sc(C)c7C)-n7c(C)nnc76)CC5)CC4)cc3)cn2)ccc1C(N)=O` (some centres unmarked) [Compound 166] here?
The IC50 was > 1 µM.

For `CCOc1cc(N2CCC(C(=O)NCCOCCOCCOc3ccc(Nc4cc(-n5nc(C(F)(F)F)c6c5CC(C)(C)CC6=O)ccc4C(N)=O)cc3)CC2)ccc1Nc1ncc2c(n1)N(C)c1ccccc1C(=O)N2C` [Compound 161], which IC50 is on record?
The IC50 was > 1 µM.

For `Cc1sc2c(c1C)C(c1ccc(Cl)cc1)=N[C@@H](CC(=O)NCCOc1ccccc1CN(C)Cc1ccc(-n3c(O)nnc3-c3cc(C(C)C)c(O)cc3O)cc1)c1nnc(C)n1-2` [Compound 14], which IC50 is on record?
The IC50 was 0.1 to 1 µM.

With `Cc1sc2c(c1C)C(c1ccc(Cl)cc1)=N[C@@H](CC(=O)N1CCC(CCN3CCN(c4ccc(-n5c(O)nnc5-c5cc(C(C)C)c(O)cc5O)cc4)CC3)CC1)c1nnc(C)n1-2` [Compound 28] as the molecule, how does the IC50 read?
The IC50 was 0.1 to 1 µM.

With `Cc1sc2c(c1C)C(c1ccc(Cl)cc1)=N[C@@H](CCNCc1ccc(-n3c(O)nnc3-c3cc(C(C)C)c(O)cc3O)cc1)c1nnc(C)n1-2` [Compound 31] as the molecule, how does the IC50 read?
Its IC50 is 0.1 to 1 µM.

How did the IC50 turn out when `CCc1cc(-c2nnc(O)n2-c2ccc(CN3CCN(CC4CCN(C(=O)C[C@@H]5N=C(c6ccc(Cl)cc6)c6c(sc(C)c6C)-n6c(C)nnc65)CC4)CC3)cc2)c(O)cc1O` [Compound 41] was run?
Its IC50 is < 0.1 µM.

How did the IC50 turn out when `CCc1cc(-c2nnc(O)n2-c2ccc(CN3CCC(C(=O)N4CCC(Nc5ncc(NC(=O)c6cc(C(=O)c7c(Cl)ccc(Cl)c7F)c[nH]6)cn5)CC4)CC3)cc2)c(O)cc1O` [Compound 116] was run?
The IC50 was 0.1 to 1 µM.

How did the IC50 turn out when `Cc1cc(-c2nnc(O)n2-c2ccc(CN3CCN(CC4CCN(C(=O)C[C@@H]5N=C(c6ccc(Cl)cc6)c6c(sc(C)c6C)-n6c(C)nnc65)CC4)CC3)c(F)c2)c(O)cc1O` [Compound 54] was run?
Its IC50 is 0.1 to 1 µM.

`CCn1c(=O)/c(=C2\Sc3ccccc3N2C)s/c1=C\c1cccc[n+]1CCCCCCNC(=O)C[C@@H]1N=C(c2ccc(Cl)cc2)c2c(sc(C)c2C)-n2c(C)nnc21` [Compound 163] was tested. Which IC50 did it give?
Its IC50 is > 1 µM.

For `CCOc1cc(N2CCC(C(=O)NCOCCN3CCC(Cc4ccc(-n5c(O)nnc5-c5cc(C(C)C)c(O)cc5O)cc4)CC3)CC2)ccc1Nc1ncc2c(n1)N(C)c1ccccc1C(=O)N2C` [Compound 111], which IC50 is on record?
The IC50 was 0.1 to 1 µM.

For `Cc1sc2c(c1C)C(c1ccc(Cl)cc1)=N[C@@H](CC(=O)NCCOCCN1CCC(Cc3ccc(-n4c(O)nnc4-c4cc(C(C)C)c(O)cc4O)cc3)CC1)c1nnc(C)n1-2` [Compound 9], which IC50 is on record?
The IC50 was 0.1 to 1 µM.

With `Cc1sc2c(c1C)C(c1ccc(Cl)cc1)=NC(CC(=O)N1CCC(CN3CCN(Cc4ccc(-n5c(O)nnc5-c5cc(C(C)C)c(O)cc5O)cc4)CC3)CC1)c1nnc(C)n1-2` (centres unmarked) [Compound 1] as the molecule, how does the IC50 read?
Its IC50 is 0.1 to 1 µM.

For `CCc1cc(-c2nnc(O)n2-c2ccc(CN3CCN(CC4CCN(C(=O)C[C@@H]5N=C(c6ccc(Cl)cc6)c6c(sc(C)c6C)-n6c(C)nnc65)CC4)CC3)c(F)c2)c(O)cc1O` [Compound 53], which IC50 is on record?
The IC50 was 0.1 to 1 µM.

`Cc1sc2c(c1C)C(c1ccc(Cl)cc1)=N[C@@H](CC(=O)N[C@@H](C)c1ccc(CN3CCN(Cc4ccc(-n5c(O)nnc5-c5cc(C(C)C)c(O)cc5O)cc4)CC3)cc1)c1nnc(C)n1-2` [Compound 38] was tested. Which IC50 did it give?
The IC50 was 0.1 to 1 µM.

With `Cc1sc2c(c1C)C(c1ccc(Cl)cc1)=N[C@@H](CC(=O)NCC(=O)NCCOc1ccc(-n3c(O)nnc3-c3cc(C(C)C)c(O)cc3O)cc1)c1nnc(C)n1-2` [Compound 24] as the molecule, how does the IC50 read?
The IC50 was 0.1 to 1 µM.

How did the IC50 turn out when `Cc1sc2c(c1C)C(c1ccc(Cl)cc1)=N[C@@H](CC(=O)NCCOc1ccc(CN(C)Cc3ccc(-n4c(O)nnc4-c4cc(C(C)C)c(O)cc4O)cc3)cc1)c1nnc(C)n1-2` [Compound 21] was run?
Its IC50 is 0.1 to 1 µM.

Which IC50 does the source give for `CC[C@@H](C)Nc1cc(C(=O)NC2CC3CCC(C2)N3c2ccc(C(=O)c3ccc(CN4CCN(CC5CCN(C(=O)C[C@@H]6N=C(c7ccc(Cl)cc7)c7c(sc(C)c7C)-n7c(C)nnc76)CC5)CC4)cc3)cn2)c(C)cc1C(N)=O` (some centres unmarked) [Compound 165] here?
Its IC50 is > 1 µM.

For `CCOc1cc(N2CCC(C(=O)NCCOCCOc3ccc(-n4c(O)nnc4-c4cc(CC)c(O)cc4O)cc3)CC2)ccc1Nc1ncc2c(n1)N(C)c1ccccc1C(=O)N2C` [Compound 112], which IC50 is on record?
Its IC50 is 0.1 to 1 µM.
